Assay results as given in patent US20240300973A1, “MODULATORS OF FPR1 AND METHODS OF USING THE SAME” (BIOFRONT THERAPEUTICS (BEIJING) CO., LTD., priority 2021, published 2024).

Target: T1, FPR1 (UniProt P21462)
T1 sequence (P21462 1-350): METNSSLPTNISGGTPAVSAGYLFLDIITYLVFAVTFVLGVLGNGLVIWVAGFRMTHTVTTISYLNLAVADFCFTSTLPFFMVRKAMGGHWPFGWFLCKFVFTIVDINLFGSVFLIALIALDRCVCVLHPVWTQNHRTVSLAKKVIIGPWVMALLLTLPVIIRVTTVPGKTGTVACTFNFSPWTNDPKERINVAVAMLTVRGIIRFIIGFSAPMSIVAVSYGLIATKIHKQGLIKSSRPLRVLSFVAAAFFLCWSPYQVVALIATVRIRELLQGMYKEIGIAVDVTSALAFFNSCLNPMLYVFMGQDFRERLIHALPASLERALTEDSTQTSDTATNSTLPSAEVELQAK
Experiment: fMLP-FPR1 mediated intracellular calcium signaling assay in FPR1-overexpressing 293T cells
Format: cell-based, human or mouse
Conditions: inhibition of fMLP-stimulated intracellular calcium change; hFPR1 or mFPR1 overexpressing 293T cells; 10 min pre-incubation; INDO-1 AM, FACS; read-out: IC50 (nM), potency in calcium signaling assay
Experimental: The effects of the compounds of this disclosure on regulating the FPR1-mediated cell signaling were measured by monitoring the cellular calcium level change, as illustrated by the exemplary examples in Table 2. The dose responses of the illustrated examples are reported categorically using the following ranking criteria: *** (IC50≤100 nM); ** (IC50≥100 to ≤1000 nM); * (IC50≥1000 to ≤10,000 nM); N.D.—not detected.
The coding DNA sequence (CDS) of human FPR1 (NM_001193306) and mouse FPR1 (NM_013521) were cloned and inserted to the lentivirus vector GV367 (Vector information: • http://www.genechem.com.cn/index/supports/tool_search.html?keywords=GV367) under the conduction of pCMV promoter. 293T cells were cultured in H-DMEM supplemented with 10% FBS and 1% penicillin—streptomycin (PS) at 37° C. in 5% CO2 Incubator. […] The overexpression of human or mouse FPR1 in 293 T cells were detected by immunostaining with anti-mouse or human FPR1 antibodies (Biolegend or Antibody Online). […]
Cultured hFPR1 or mFPR1 overexpressing 293T cells were labeled with 1 μM INDO-1 AM calcium sensor dye (eBioscience) for 30 min at 37° C. […] The cytoplasmic calcium levels were then measured by FACS Aria III at 37° C. prior to and after the stimulation of fMLP. […] The change of intracellular calcium was calculated as follow: (basal value-minimum value)/basal value×100%. […]

IC50 [nM]	SMILES
100 to 1000	Cc1ccc(O)c(-c2noc3c2C(c2ccc(C(F)(F)F)cc2)N(C2CCOCC2)C3=O)c1 (racemic) [Compound 2, rac-3-(2-hydroxy-5-methylphenyl)-5-(tetrahydro-2H-pyran-4-yl)-4-(4-(trifluoromethyl)phenyl)-4,5-dihydro-6H-pyrrolo[3,4-d]isoxazol-6-one]
1000 to 10000	Cc1ccc(O)c(-c2onc3c2C(c2ccc(C(F)(F)F)cc2)N(C2CCOCC2)C3=O)c1 (racemic) [Compound 1, rac-3-(2-hydroxy-5-methylphenyl)-5-(tetrahydro-2H-pyran-4-yl)-4-(4-(trifluoromethyl)phenyl)-4,5-dihydro-6H-pyrrolo[3,4-c]isoxazol-6-one]
